{"source": "paper PMC4320118", "about": "“Micheliolide Derivative DMAMCL Inhibits Glioma Cell Growth In Vitro and In Vivo” (PLoS ONE, 2015)", "key": {"[1]": {"settings": "cited from earlier work"}, "[2]": {"system": "rat 9L gliosarcomas", "set-up": "method as in PMID 21559510", "settings": "cited from earlier work"}, "[3]": {"system": "human U251 glioma xenografts", "set-up": "method as in PMID 21559510", "settings": "human U251 glioma xenografts ref 12; cited from earlier work"}, "[4]": {"system": "rat 9L gliosarcoma", "set-up": "method as in PMID 21727209", "settings": "direct injection into the brain using biodegradable beads, increased from 12.5 days ref 26; cited from earlier work"}, "[5]": {"system": "primary acute myeloid leukemia (AML) cells", "settings": "cited from earlier work"}, "[6]": {"system": "intracerebral C6 glioma", "description": "Adult Wistar rats (120–180 g, age 4–8 weeks) were obtained from the Animal Center at the Academy of Military Medical Sciences and had animal certification of SCXK (army) 2012–001. Animals were housed in collective cages at a temperature of 23 ± 2°C and relative humidity of 40% to 70%. All rats had free access to food and water.\nIntracerebral tumor implantations were performed according to the following procedures. C6 tumors were maintained as subcutaneous tumors in rats. Subcutaneous masses were excised, dissociated, and mixed with matrigel on ice (BD Biosciences) at a ratio of 1:1. After removing of the hair on the skull, a small midline incision in the scalp was gently made under anesthesia with 2% sodium pentobarbital at a dose of 40mg/kg. C6 cells in matrigel (0.1 mL of the cell/matrigel mixture containing 10^8 cells /mL) were carefully injected into the right frontal cortex by a special 16-gauge stainless steel needle with 5 mm needle tubing. Implantation coordinates were determined from Swanson’s Stereotaxic Atlas guidelines (1992): 1.0 mm anterior and 3.0 mm lateral to bregma, at a depth of 5.0 mm from the brain surface. […] The syringe was slowly retracted, the hole was sealed with bone wax, and the incision was sutured under aseptic conditions. […] Then 0.015 mg/kg buprenorphine (s.c.) was administered to relieve the pain. The rats were replaced in cages and allowed to recover from anesthesia.\nRats were divided into the following 5 treatment groups 24 h after surgery (n = 9 rats /group) according to rat weight: 1) vehicle (normal saline: NS); 2) vincristine (VCR) at 100μg/kg; 3) DMAMCL at 25 mg/kg; 4) DMAMCL at 50 mg/kg; and 5) DMAMCL at 100 mg/kg. All drugs were prepared in NS and administered once daily for 21 days. DMAMCL was administered orally, and VCR was injected into the caudal vein. Rats were weighed and monitored for signs of mortality daily. Twenty one days into the treatment, rats were euthanized via CO2 asphyxiation under deep anesthesia by sodium pentobarbital. Brains and tumors were separated from the cerebellum and medulla oblongata, and weighed, photographed, fixed in formalin, and embedded in paraffin for sectioning. The tumor: brain weight ratio was assessed to observe the degree of tumor cell growth in brain. Serial sections (5 μm in thickness) were stained by hematoxylin and eosin (HE)."}, "[7]": {"system": "intracerebral C6 glioma", "test": "Survival time analysis in C6 intracerebral glioma rats", "type": "in vivo, Wistar rats", "settings": "VCR, treated daily for 21 days", "description": "C6 tumors were maintained as subcutaneous tumors in rats.\nThe survival time analyses were performed in C6 intracerebral glioma rats. […] Animals were monitored daily for signs of mortality and weight. Rats were sacrificed when a loss of mobility, lethargy, hemorrhaging around the eyes, or a hunched posture was observed as previously described. The observation time was terminated when all the vehicle rats died. Then the other rats were euthanized by CO2 asphyxiation."}, "[8]": {"settings": "VCR 100μg/kg caudal vein once daily for 21 days"}}, "note": "Marks after values point to notes of the source that are not given here.", "data": [{"molecule": "C=C1C(=O)O[C@H]2[C@H]1CC/C(C)=C/CC[C@@]1(C)O[C@@H]21", "note": "[PTL, Parthenolide]", "values": [{"measurement": "Stability", "setting": "[1]; acidic and basic conditions ref 15", "result": "unstable under both acidic and basic conditions"}]}, {"molecule": "C=CCc1ccc(O)c(-c2ccc(O)c(CC=C)c2)c1", "note": "[Honokiol]", "values": [{"measurement": "Increase of survival compared to controls", "setting": "[2]", "result": 5, "unit": "days"}, {"measurement": "Reduction of tumor volume", "setting": "[2]; rat 9L gliosarcomas ref 12", "result": 52.77, "unit": "%"}, {"measurement": "Reduction of tumor volume", "setting": "[3]", "result": 50.21, "unit": "%"}]}, {"molecule": "CO[C@H]1C[C@@H]2CC[C@@H](C)[C@@](O)(O2)C(=O)C(=O)N2CCCC[C@H]2C(=O)O[C@H]([C@H](C)C[C@@H]2CC[C@@H](O)[C@H](OC)C2)CC(=O)[C@H](C)/C=C(\\C)[C@@H](O)[C@@H](OC)C(=O)[C@H](C)C[C@H](C)/C=C/C=C/C=C/1C", "note": "[rapamycin, Rapamycin]", "values": [{"measurement": "Survival", "setting": "[4]", "result": 29, "unit": "days"}]}, {"molecule": "C=C1C(=O)O[C@H]2[C@H]1CCC(C)=C1CC[C@@](C)(O)[C@@H]12", "note": "[MCL, micheliolide]", "values": [{"measurement": "Stability compared with PTL", "setting": "[1]", "result": "more stable than PTL"}, {"measurement": "Number of colony-forming units of primary AML cells", "setting": "[5]", "result": "greatly reduced the number of colony-forming units"}]}, {"molecule": "CC[C@]1(O)C[C@H]2CN(CCc3c([nH]c4ccccc34)[C@@](C(=O)OC)(c3cc4c(cc3OC)N(C=O)[C@H]3[C@@](O)(C(=O)OC)[C@H](OC(C)=O)[C@]5(CC)C=CCN6CC[C@]43[C@@H]65)C2)C1", "note": "[VCR, vincristine, reference compound]", "values": [{"measurement": "Deaths during the 21-day study", "setting": "[6]; VCR 100μg/kg caudal vein once daily", "result": "One rat died on day 18"}, {"measurement": "Inhibition (percent decrease in tumor weight compared to the vehicle group)", "setting": "[6]; [8]", "result": 81.6, "unit": "%"}, {"measurement": "Tumor weight", "setting": "[6]; [8]", "result": "0.13 ± 0.07", "unit": "g"}, {"measurement": "Tumor/brain", "setting": "[6]; [8]", "result": "6.5 ± 2.6", "unit": "%"}, {"measurement": "Histopathology of brain tissue (HE)", "setting": "[6]; VCR 100μg/kg, 21 days", "result": "appeared similar to normal brain tissues"}, {"measurement": "Median survival of deceased animals", "setting": "[7]", "result": 24, "unit": "days"}, {"measurement": "Time of death End", "setting": "[7]", "result": 57, "unit": "days"}, {"measurement": "Time of death Start", "setting": "[7]", "result": 23, "unit": "days"}, {"measurement": "Survival (# of rats) End", "setting": "[7]; 63 days, n = 10", "result": "7 # of rats"}, {"measurement": "Survival", "setting": "[7]; at 63 days", "result": "70 ^*** %"}, {"measurement": "Mean survival", "setting": "[7]; observation 63 days", "result": "54.5 ± 16.4", "unit": "days"}, {"measurement": "Median survival", "setting": "[7]; observation 63 days", "result": 63, "unit": "days"}]}]}
